Results as given in the NIST ThermoML archive (doi:10.1016/j.tca.2011.02.002).

Tests used:
[1] = excess molar enthalpy (molar enthalpy of mixing); xn = mol fraction of the nth substance listed; conditions: 308.15 K, 101 kPa, Liquid, 2-drop calorimeter (CSC 4600_
[2] = xn = mol fraction of the nth substance listed; conditions: 101 kPa, Liquid; for mass density: Vibrating tube method

Cc1ccncc1 [4-methylpyridine] + C1CCOCC1
[1]
Conditions	excess molar enthalpy [kJ/mol]
x2 = 0.0442	0.0124
x2 = 0.1216	0.0426
x2 = 0.1982	0.0761
x2 = 0.2416	0.0975
x2 = 0.2882	0.118
x2 = 0.3401	0.135
x2 = 0.3876	0.153
x2 = 0.4371	0.165
x2 = 0.4834	0.174
x2 = 0.5256	0.175
x2 = 0.5934	0.173
x2 = 0.6433	0.163
x2 = 0.6925	0.15
x2 = 0.7367	0.132
x2 = 0.7952	0.107
x2 = 0.8262	0.0948
x2 = 0.8842	0.0626
x2 = 0.9406	0.0325

[2]
Conditions	mass density, 298.15 K [kg/m3]	mass density, 303.15 K [kg/m3]	mass density, 308.15 K [kg/m3]	speed of sound, 298.15 K [m/s]	speed of sound, 303.15 K [m/s]	speed of sound, 308.15 K [m/s]
x2 = 0	950.179	945.413	940.821	1431.5	1410.7	1389.9
x2 = 0.0521	946.678	941.884	936.955	1422.7	1402.2	1380.6
x2 = 0.0832	944.577	939.773	935.004	1417.5	1397.2	1376.2
x2 = 0.1426	940.548	935.733	931.541	1407.8	1387.6	1368.4
x2 = 0.1882	937.434	932.615	928.307	1400.5	1380.3	1360.8
x2 = 0.2536	932.939	928.121	923.922	1390.1	1369.7	1350.5
x2 = 0.2902	930.406	925.591	921.331	1384.3	1363.8	1344.4
x2 = 0.3415	926.841	922.019	917.744	1376.1	1355.3	1336
x2 = 0.3782	924.275	919.451	914.432	1370.3	1349.3	1328
x2 = 0.4323	920.471	915.637	911.254	1361.6	1340.5	1320.8
x2 = 0.4913	916.295	911.443	907.207	1352.1	1330.7	1311.3
x2 = 0.5437	912.559	907.692	903.227	1343.6	1322	1302.1
x2 = 0.5991	908.587	903.687	899.247	1334.5	1312.8	1292.8
x2 = 0.6427	905.441	900.515	895.885	1327.3	1305.5	1285.2
x2 = 0.7015	901.173	896.211	891.453	1317.7	1295.7	1275
x2 = 0.7822	895.277	890.253	887.03	1304.4	1282.3	1264.5
x2 = 0.8263	892.032	886.976	882.795	1297.2	1275	1255.2
x2 = 0.8846	887.726	882.631	877.665	1287.9	1265.5	1243.9
x2 = 0.9435	883.352	878.225	873.901	1278.6	1255.9	1235.3
